Test results published in patent publication US20100234417A1, “THYROTROPIN RELEASING HORMONE RECEPTOR-OREXIN RECEPTOR HETERO-DIMERS/-OLIGOMERS” (DIMERIX BIOSCIENCE PTY LTD., priority 2006, published 2010).
Ends that are not written are not given here.

Legend:
[1] = target: T1, thyrotropin releasing hormone receptor (TRHR) (Rattus norvegicus, UniProt Q01717); test: eBRET/BRET beta-arrestin recruitment to TRHR/Rluc without IG3 (pcDNA3) in HEK293 cells; format: cell-based
T1 construct: expressed in transfected cells; host or cells: HEK293 (HEK293FT)
T1 sequence (Q01717 1-412): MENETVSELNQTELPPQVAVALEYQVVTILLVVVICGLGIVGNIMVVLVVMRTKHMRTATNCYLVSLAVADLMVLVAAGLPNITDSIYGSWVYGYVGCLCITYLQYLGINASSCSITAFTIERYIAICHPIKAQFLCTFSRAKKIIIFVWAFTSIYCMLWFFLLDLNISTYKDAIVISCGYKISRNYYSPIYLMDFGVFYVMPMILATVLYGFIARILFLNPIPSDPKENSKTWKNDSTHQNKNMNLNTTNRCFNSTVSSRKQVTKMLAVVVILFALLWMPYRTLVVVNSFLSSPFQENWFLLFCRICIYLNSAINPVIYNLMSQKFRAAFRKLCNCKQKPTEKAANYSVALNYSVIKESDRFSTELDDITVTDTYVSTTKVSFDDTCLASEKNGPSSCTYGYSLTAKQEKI
Description: Briefly, referring to FIGS. 1 to 3, the IGs are provided in the form of the two receptors (TRHR and OxR). One of the two is attached to an RC (IG1-RC1, IG3). A second IG (IG2-RC2) is derived from a molecule that interacts with the receptors upon ligand binding (e.g. beta-arrestin, or a mutant thereof). The detection system not only detects the formation of the TRHR-OxR heterodimer but can distinguish whether a ligand or drug acts as an agonist, partial agonist, antagonist, inverse agonist or partial inverse agonist at the receptor hetero-dimer.
Cells were seeded in 6-well plates at a density of approximately 630,000 cells/well (HEK293FT) or approximately 150,000 cells/well (COS-7) and maintained at 37° C., 5% CO2 in Complete Media (DMEM containing 0.3 mg/ml glutamine, 100 IU/ml penicillin and 100 μg/ml streptomycin (Gibco)) supplemented with 10% fetal calf serum (FCS; Gibco). Transient transfections were carried out 24 h after seeding using GeneJuice (Novagen) or Metafectene (Biontex) according to manufacturer instructions. 24 h post-transfection, cells were washed with PBS, detached using 0.05% trypsin/0.53 mM EDTA, resuspended in HEPES-buffered phenol red free Complete Media containing 5% FCS and added to a poly-L-lysine-coated white microplate (Nunc). 48 h post-transfection, eBRET assays were carried out following pre-incubation of cells with EnduRen™ (Promega) at a final concentration of 30-40 μM, at 37° C., 5% CO2 for 2 h. For original BRET studies, the HEPES-buffered phenol red free Complete Media was replaced with PBS and coelenterazine h (Molecular Probes) added to a final concentration of 5 μM immediately prior to commencing the assay. BRET measurements were taken at 37° C. using the Victor Light plate reader with Wallac 1420 software (Perkin-Elmer). Filtered light emissions were sequentially measured for 3-5 s in each of the ‘donor wavelength window’ (400-475 nm) and ‘acceptor wavelength window’ (>500 nm for EGFP or 520-540 nm for EYFP, Topaz (TYFP) or Venus). The BRET signal observed between interacting proteins is normalized by subtracting the background BRET ratio. This can be done in one of two ways (see Pfleger et al. (2006) Cell Signal 18, 1664-1670; Pfleger et al. (2006) Nat Protoc 1, 336-344): 1) the ratio of light emission through the acceptor wavelength window over the 400-475 nm emission for a cell sample containing only the donor construct is subtracted from the same ratio for a sample containing the interacting acceptor and donor fusion proteins; 2) the ratio of light emission through the ‘acceptor wavelength window’ over the 400-475 nm emission for a cell sample treated with vehicle is subtracted from the same ratio for a second aliquot of the same cell sample treated with ligand. In the following examples, the first calculation will be used, unless the signal is described as the ‘ligand-induced BRET ratio’. Alternatively, and particularly when illustrating z-factor data (Zhang et al. (1999) J Biomol Screen 4, 67-73), the BRET signal observed between interacting proteins can be shown in conjunction with (as oppose to being subtracted by) the background BRET ratio to evaluate error associated with the BRET signal observed between interacting proteins and the error associated with the background BRET ratio independently. In this case, data are shown as ‘fluorescence/luminescence’ being the ratio of light emission through the ‘acceptor wavelength window’ over the 400-475 nm emission for a particular cell sample. Unless otherwise stated, BRET signals were measured in 96-well microplates.
Referring now to FIG. 4, eBRET signals were measured from cells transiently co-expressing TRHR/Rluc and barr2/Venus with either pcDNA3, OxR2, CXCR2, HA-MC3R, HA-MC4R, D2LR or D2SR following the treatment of each with their respective ligands.
Referring now to FIG. 5, eBRET signals were measured from cells transiently co-expressing TRHR/Rluc and EGFP/barr1 or EGFP/barr2 with either pcDNA3 or OXR2. […]

[2] = tested on: TRHR335 with OxR2; test: eBRET/BRET: truncated TRHR335/Rluc + tagged beta-arrestin + OxR2 as IG3; format: cell-based
Description: Cells were seeded in 6-well plates at a density of approximately 630,000 cells/well (HEK293FT) or approximately 150,000 cells/well (COS-7) and maintained at 37° C., 5% CO2 in Complete Media (DMEM containing 0.3 mg/ml glutamine, 100 IU/ml penicillin and 100 μg/ml streptomycin (Gibco)) supplemented with 10% fetal calf serum (FCS; Gibco). Transient transfections were carried out 24 h after seeding using GeneJuice (Novagen) or Metafectene (Biontex) according to manufacturer instructions. 24 h post-transfection, cells were washed with PBS, detached using 0.05% trypsin/0.53 mM EDTA, resuspended in HEPES-buffered phenol red free Complete Media containing 5% FCS and added to a poly-L-lysine-coated white microplate (Nunc). 48 h post-transfection, eBRET assays were carried out following pre-incubation of cells with EnduRen™ (Promega) at a final concentration of 30-40 μM, at 37° C., 5% CO2 for 2 h. For original BRET studies, the HEPES-buffered phenol red free Complete Media was replaced with PBS and coelenterazine h (Molecular Probes) added to a final concentration of 5 μM immediately prior to commencing the assay. […] Filtered light emissions were sequentially measured for 3-5 s in each of the ‘donor wavelength window’ (400-475 nm) and ‘acceptor wavelength window’ (>500 nm for EGFP or 520-540 nm for EYFP, Topaz (TYFP) or Venus). The BRET signal observed between interacting proteins is normalized by subtracting the background BRET ratio. […] In the following examples, the first calculation will be used, unless the signal is described as the ‘ligand-induced BRET ratio’. […] In this case, data are shown as ‘fluorescence/luminescence’ being the ratio of light emission through the ‘acceptor wavelength window’ over the 400-475 nm emission for a particular cell sample. Unless otherwise stated, BRET signals were measured in 96-well microplates.
Referring now to FIG. 9, eBRET signals were measured from cells transiently co-expressing TRHR335/Rluc and EGFP/barr1 with either OxR2 or TRHR.

[3] = TRHR/Rluc only (no OxR2) + EGFP/barr1 or EGFP/barr2, FIG. 5
[4] = TRHR335/Rluc + EGFP/barr1 + OxR2, FIG. 9

Row | Molecule | eBRET signal peak ([1]; HEK293, TRHR/Rluc + barr2/Venus + pcDNA3, ligand 10^−6M, 37 C, FIG. 4) | time to eBRET signal peak ([1]; HEK293, TRHR/Rluc + barr2/Venus + pcDNA3, ligand 10^−6M, FIG. 4) | dose-response Hill slope ([1]; TRHR/Rluc + barr2/Venus + pcDNA3, FIG. 10) | eBRET signal ([1]; TRHR/Rluc only (no HA-OxR2), FIG. 7) | eBRET signal ([1]; TRHR/Rluc only (no OxR2) + EGFP/barr1 or EGFP/barr1R169E, FIG. 8) | eBRET signal [1, 3] | eBRET signal with EGFP/barr1R169E relative to EGFP/barr1 ([1]; TRHR/Rluc only (no OxR2), FIG. 8) | eBRET signal [2, 4] | BRET signal (dose response) ([2]; TRHR335/Rluc + barr2/Venus + OxR2, FIG. 15) | eBRET signal ([1]; OxA added to cells lacking HA-OxR2, FIG. 7) | cumulative eBRET signal ([1]; TRHR/Rluc + EGFP/barr1, 0 μg OxR2 DNA/well, 10^−6M OxA, 83 mins, FIG. 16) | effect of OxA on TRH-induced eBRET signal [1, 3] | time for eBRET signal to reach plateau [2, 4]
1 | NC(=O)[C@@H]1CCCN1C(=O)[C@H](Cc1cnc[nH]1)NC(=O)[C@@H]1CCC(=O)N1 [TRH, pGlu-His-Pro-NH2] | greater than 0.17 | Within the first minute | approximately 1 | rapid increase in eBRET signal reaching a peak in the first few minutes | rapid increase in eBRET signal reaching a peak in the first few minutes | rapid stimulation of the eBRET signal | lower than that for EGFP/barr1 | no eBRET signal above baseline | does not result in a BRET signal |  |  |  | 
2 | OxA: orexin A; known orexin receptor modulator, used as IG3 ligand (modulator) (QPLPDCCRQKTCSCRLYELLHGAGNHAAGILTL; ends and bridges not checked; cysteine pairing not given here; UniProt O43612 34-66, looked up) |  |  |  |  |  |  |  |  |  | No increase in eBRET signal above baseline | no signal was recorded | no difference | about 20 minutes
